Where two headings read alike, the source gives them in different places.
Legend:
HUVECs [1] = assay: Disruption of capillary-like tubes on Matrigel; assay type: cell-based, human; conditions: 24 h
Description: (§1) HUVECs were prepared from human umbilical cord veins, as previously described. The adherent cells were maintained in M200 medium supplemented with LSGS (Low Serum Growth Supplement), containing FBS, hydrocortisone, hEGF, bFGF, heparin, gentamycin/amphotericin (Life Technologies, Monza, Italy). Once confluent, the cells were detached by a trypsin–EDTA solution and used in experiments from the first to sixth passages.
Matrigel matrix (Basement Membrane Matrix, BD Biosciences, Italy) was kept at 4 °C for 3 h, when 230 μL of Matrigel solution was added to each well of a 24-well plate. After gelling at 37 °C for 30 min, gels were overlaid with 500 μL of medium containing 6 × 10^4 HUVECs. The cells were incubated over Matrigel for 6 h to allow capillary tubes to form. Different concentrations of test compound were added in the cultures and incubated for different times, and the disappearance of existing vasculature was monitored and photographed (five fields for each well: the four quadrants and the center) at a 10x magnification. Phase contrast images were recorded using a digital camera and saved as TIFF files. Image analysis was carried out using ImageJ image analysis software, and dimensional (percent area covered by HUVECs and total length of HUVECs network per field) and topological parameters (number of meshes and branching points per field) were determined. Values were expressed as percent change from control cultures grown with complete medium.

HeLa = assay: Antiproliferative MTT assay, HeLa; assay type: cell-based, human; conditions: Homo sapiens, HeLa, 72 h, mean ± SE
Description: (§2) Human T-cell leukemia (Jurkat) and human B-cell leukemia (SEM and RS4;11) cells were grown in RPMI-1640 medium (Gibco, Milano, Italy). Breast adenocarcinoma (MCF-7), human cervix carcinoma (HeLa), human lung adenocarcinoma (A549) and human colon adenocarcinoma (HT-29) cells were grown in DMEM medium (Gibco, Milano, Italy), all supplemented with 115 units/mL penicillin G (Gibco, Milano, Italy), 115 μg/mL streptomycin (Invitrogen, Milano, Italy), and 10% fetal bovine serum (FBS; Invitrogen, Milano, Italy). Stock solutions (10 mM) of the different compounds were obtained by dissolving them in DMSO. Individual wells of a 96-well tissue culture microtiter plate were inoculated with 100 μL of complete medium containing 8 × 10^3 cells. The plates were incubated at 37 °C in a humidified 5% CO2 incubator for 18 h prior to the experiments. After medium removal, 100 μL of fresh medium containing the test compound at different concentrations was added to each well in triplicate and incubated at 37 °C for 72 h. The percentage of DMSO in the medium never exceeded 0.25%. This was also the maximum DMSO concentration in all cell-based assays described below.

tubulin = assay: Inhibition of [3H]colchicine binding to tubulin; conditions: tubulin 1 μM, [3H]colchicine 5 μM
Description: (§3) To evaluate the effect of the compounds on tubulin assembly in vitro[41], varying concentrations of compounds were preincubated with 10 μM bovine brain tubulin in 0.8 M monosodium glutamate (pH adjusted to 6.6 with HCl in a 2.0 M stock solution) at 30 °C and then cooled to 0 °C. After addition of 0.4 mM GTP, the mixtures were transferred to 0 °C cuvettes in a recording spectrophotometer and warmed to 30 °C. Tubulin assembly was followed turbidimetrically at 350 nm. […] The capacity of the test compounds to inhibit colchicine binding to tubulin was measured as described, except that the reaction mixtures contained 1 μM tubulin, 5 μM [^3H]colchicine and 1 or 5 μM test compound.

SEM cells = assay: Antiproliferative MTT assay, SEM; assay type: cell-based, human; conditions: Homo sapiens, 72 h, mean ± SE
Description: as §2

bovine brain tubulin = assay: Inhibition of tubulin polymerization; assay type: biochemical; conditions: tubulin at 10 μM; read-out: Tubulin assembly IC50 ± S.D
Description: as §3

Jurkat = assay: Antiproliferative MTT assay, Jurkat; assay type: cell-based, human; conditions: Homo sapiens, Jurkat, 72 h, mean ± SE
Description: as §2

[2] = system: panel of seven human tumor cell lines; assay: Antiproliferative activity, range over panel of seven human tumor cell lines; assay type: cell-based; conditions: read-out: IC50 values, range over the cell line panel
Description: as §2

HUVECs [3] = assay: HUVEC scratch wound motility assay; assay type: cell-based, human
Description: as §1
The motility assay for HUVECs was based on “scratch” wounding of a confluent monolayer. Briefly, HUVECs (1x10^5) were seeded onto 6-well plates coated with 0.1% collagen type I (BD Biosciences, Italy) in complete medium until a confluent monolayer was formed. The cells were wounded using a pipette tip, and wells were washed with PBS to remove undetached cells. Then, the cells were treated with the test compounds, and, at different times from the scratch, the cells were photographed under a light microscope. At all indicated time points, the wound width was measured in four areas and compared with the initial width.

RS 4;11 = assay: Antiproliferative MTT assay, RS 4;11; assay type: cell-based, human; conditions: Homo sapiens, RS4-11, 72 h, mean ± SE
Description: as §2

HT-29 = assay: Antiproliferative MTT assay, HT-29; assay type: cell-based, human; conditions: Homo sapiens, HT-29, 72 h, mean ± SE
Description: as §2

[4] = system: PBL not stimulated with PHA; assay: Cytotoxicity in resting peripheral blood lymphocytes; assay type: cell-based; conditions: Homo sapiens, Lymphocyte, 72 h, MTT, mean ± SEM, read-out: IC50 PBLresting
Description: (§4) Peripheral blood lymphocytes (PBL) from healthy donors were obtained from human peripheral blood (leucocyte rich plasma- buffy coats) from healthy volunteers using the Lymphoprep (Fresenius KABI Norge AS) gradient density centrifugation.
(§5) After extensive washing, cells were resuspended (1.0 × 10^6 cells/mL) in RPMI-1640 with 10% FBS and incubated overnight. For cytotoxicity evaluations in proliferating PBL cultures, non-adherent cells were resuspended at 5 × 10^5 cells/mL in growth medium, containing 2.5 μg/mL PHA (Irvine Scientific). Different concentrations of the test compounds were added, and viability was determined 72 h later by the MTT test. For cytotoxicity evaluations in resting PBL cultures, non-adherent cells were resuspended (5 × 10^5 cells/mL) and treated for 72 h with the test compounds, as described above.

HUVECs [5] = assay: Cytotoxicity in HUVECs; assay type: cell-based; conditions: Homo sapiens, HUVEC; primary HUVECs
Description: as §1

A549 = assay: Antiproliferative MTT assay, A549; assay type: cell-based, human; conditions: Homo sapiens, A549, 72 h, mean ± SE
Description: as §2

MCF-7 = assay: Antiproliferative MTT assay, MCF-7; assay type: cell-based, human; conditions: Homo sapiens, MCF7, 72 h, mean ± SE
Description: as §2

PBL stimulated with PHA = assay: Cytotoxicity in PHA-stimulated peripheral blood lymphocytes; assay type: cell-based; conditions: Homo sapiens, Lymphocyte, 72 h, MTT, mean ± SEM, read-out: IC50 PBLPHA
Description: as §4, §5

IC50 (HeLa) [nM]	IC50 (bovine brain tubulin) [nM]	IC50 (Jurkat) [nM]	IC50 (HT-29) [nM]	melting point [°C]	Colchicine binding % inhibition ± S.D, 5 μM drug (tubulin) [%]	IC50 ([2]; Homo sapiens) [nM]	IC50 (A549) [nM]	IC50 (MCF-7) [nM]	SMILES	antivascular effect on Matrigel preformed tubular structures (HUVECs [1]; 10 nM)	Colchicine binding % inhibition ± S.D, 1 μM drug (tubulin) [%]	IC50 (SEM cells) [nM]	IC50 [2] [nM]	HUVEC cell migration (wound healing) (HUVECs [3]; 10 nM, 6 and 24 h)	IC50 (RS 4;11) [nM]	IC50 [4] [µM]	IC50 (HUVECs [5]) [µM]	IC50 (PBL stimulated with PHA) [µM]	antivascular effect on Matrigel preformed tubular structures (HUVECs [1]; 100 nM (highest concentration))	HUVEC cell migration (wound healing) (HUVECs [3]; 100 nM, 6 h and 24 h)
2.1 ± 0.5	1200 ± 100	73.2 ± 5.2	0.5 ± 0.1	104 to 116	74 ± 5	0.5 to 73.2	12.6 ± 5.4	1.1 ± 0.5	COc1cc(-c2nc(C)oc2-c2ccc3ccccc3c2)cc(OC)c1OC [Compound 4a, 4-(3,4,5-Trimethoxyphenyl)-2-methyl-5-(naphthalen-3-yl)oxazole]		47 ± 0.8	40.2 ± 11			14.3 ± 6.2	15.5 ± 1.5	> 100	21.1 ± 1.2		
2 ± 0.8	1300 ± 100	50.7 ± 10.8	1.9 ± 0.8	116 to 118	72 ± 2		1.5 ± 0.44	0.4 ± 0.08	CCOc1ccc(-c2nc(C)oc2-c2cc(OC)c(OC)c(OC)c2)cc1 [Compound 5f, 4-(4-Ethoxyphenyl)-5-(3,4,5-trimethoxyphenyl)-2-methyloxazole]			13.3 ± 4.2			11.9 ± 6.3	34.5 ± 4.5	> 100	17.7 ± 2.1	did not show a significant antivascular effect	significantly reduced

SMILES	IC50 (HeLa) [nM]	IC50 (bovine brain tubulin) [nM]	IC50 (Jurkat) [nM]	IC50 (HT-29) [nM]	melting point [°C]	Colchicine binding % inhibition ± S.D, 5 μM drug (tubulin) [%]	IC50 ([2]; Homo sapiens) [nM]	IC50 (A549) [nM]	IC50 (MCF-7) [nM]	antivascular effect on Matrigel preformed tubular structures (HUVECs [1]; 10 nM)	Colchicine binding % inhibition ± S.D, 1 μM drug (tubulin) [%]	IC50 (SEM cells) [nM]	IC50 [2] [nM]	HUVEC cell migration (wound healing) (HUVECs [3]; 10 nM, 6 and 24 h)	IC50 (RS 4;11) [nM]	IC50 [4] [µM]	IC50 (HUVECs [5]) [µM]	IC50 (PBL stimulated with PHA) [µM]	antivascular effect on Matrigel preformed tubular structures (HUVECs [1]; 100 nM (highest concentration))	HUVEC cell migration (wound healing) (HUVECs [3]; 100 nM, 6 h and 24 h)
COc1ccc(/C=C\c2cc(OC)c(OC)c(OC)c2)cc1O [CA-4, combretastatin A-4, reference compound]	4 ± 0.1	[…]	5 ± 0.6							significant antivascular activity	93 ± 0.8	5 ± 0.1	0.8 to 3100	[…]	0.8 ± 0.2					

Source: publication PMC5390315 (Scientific Reports, 2017)
